How the values were obtained:
[1] = biological target: Human α2δ-1 Subunit of Cav2.2 Calcium Channel (Homo sapiens, UniProt P54289); test: Human α2δ-1 subunit of Cav2.2 calcium channel assay, [3H]-Gabapentin binding; settings: human α2δ-1 enriched membranes, 15 nM [3H]-Gabapentin
Description: Human α2δ-1 Subunit of Cav2.2 Calcium Channel Assay
Human α2δ-1 enriched membranes (2.5 μg) were incubated with 15 nM of radiolabeled [3H]-Gabapentin in assay buffer containing Hepes-KOH 10 mM, pH 7.4. NSB (non specific binding) was measured by adding 10 μM pregabalin. The binding of the test compound was measured at five different concentrations. After 60 min incubation at 27° C., binding reaction was terminated by filtering through Multiscreen GF/C (Millipore) presoaked in 0.5% polyethyleneimine in Vacuum Manifold Station, followed by 3 washes with ice-cold filtration buffer containing 50 mM Tris-HCl, pH 7.4. Filter plates were dried at 60° C. for 1 hour and 30 μl of scintillation cocktail were added to each well before radioactivity reading. Readings were performed in a Trilux 1450 Microbeta radioactive counter (Perkin Elmer).

[2] = biological target: Human norepinephrine transporter (NET) (Homo sapiens, UniProt P23975); test: Binding assay to human norepinephrine transporter (NET), [3H]-Nisoxetin; settings: human NET enriched membranes, 5 nM [3H]-Nisoxetin
Description: Binding Assay to Human Norepinephrine Transporter (NET).
Human norepinephrine transporter (NET) enriched membranes (5 μg) were incubated with 5 nM of radiolabeled [3H]-Nisoxetin in assay buffer containing 50 mM Tris-HCl, 120 mM NaCl, 5 mM KCl, pH 7.4. NSB (non specific binding) was measured by adding 10 μM of desipramine. The binding of the test compound was measured at five different concentrations. After 60 min incubation at 4° C., binding reaction was terminated by filtering through Multiscreen GF/C (Millipore) presoaked in 0.5% polyethyleneimine in Vacuum Manifold Station, followed by 3 washes with ice-cold filtration buffer containing 50 mM Tris-HCl, 0.9% NaCl, pH 7.4. Filter plates were dried at 60° C. for 1 hour and 30 μl of scintillation cocktail were added to each well before radioactivity reading. Readings were performed in a Trilux 1450 Microbeta radioactive counter (Perkin Elmer).

Sequence of Human norepinephrine transporter (NET) (P23975 whole entry): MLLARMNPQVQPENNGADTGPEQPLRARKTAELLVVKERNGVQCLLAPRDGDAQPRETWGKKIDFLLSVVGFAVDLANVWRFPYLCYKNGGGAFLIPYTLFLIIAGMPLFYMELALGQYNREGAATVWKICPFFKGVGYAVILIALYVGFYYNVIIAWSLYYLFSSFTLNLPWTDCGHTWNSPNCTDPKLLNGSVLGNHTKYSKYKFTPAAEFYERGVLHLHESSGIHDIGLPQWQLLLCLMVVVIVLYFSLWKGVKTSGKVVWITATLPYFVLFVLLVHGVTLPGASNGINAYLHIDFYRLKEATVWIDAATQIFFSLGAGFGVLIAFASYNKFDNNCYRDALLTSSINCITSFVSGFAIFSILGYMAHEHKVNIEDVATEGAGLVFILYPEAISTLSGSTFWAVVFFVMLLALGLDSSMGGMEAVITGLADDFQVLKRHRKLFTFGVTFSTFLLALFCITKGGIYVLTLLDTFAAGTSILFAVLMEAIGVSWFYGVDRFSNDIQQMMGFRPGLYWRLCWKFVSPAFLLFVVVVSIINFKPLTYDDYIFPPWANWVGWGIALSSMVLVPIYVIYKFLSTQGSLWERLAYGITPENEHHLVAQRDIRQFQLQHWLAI
Sequence of Human α2δ-1 Subunit of Cav2.2 Calcium Channel (P54289 25-1103): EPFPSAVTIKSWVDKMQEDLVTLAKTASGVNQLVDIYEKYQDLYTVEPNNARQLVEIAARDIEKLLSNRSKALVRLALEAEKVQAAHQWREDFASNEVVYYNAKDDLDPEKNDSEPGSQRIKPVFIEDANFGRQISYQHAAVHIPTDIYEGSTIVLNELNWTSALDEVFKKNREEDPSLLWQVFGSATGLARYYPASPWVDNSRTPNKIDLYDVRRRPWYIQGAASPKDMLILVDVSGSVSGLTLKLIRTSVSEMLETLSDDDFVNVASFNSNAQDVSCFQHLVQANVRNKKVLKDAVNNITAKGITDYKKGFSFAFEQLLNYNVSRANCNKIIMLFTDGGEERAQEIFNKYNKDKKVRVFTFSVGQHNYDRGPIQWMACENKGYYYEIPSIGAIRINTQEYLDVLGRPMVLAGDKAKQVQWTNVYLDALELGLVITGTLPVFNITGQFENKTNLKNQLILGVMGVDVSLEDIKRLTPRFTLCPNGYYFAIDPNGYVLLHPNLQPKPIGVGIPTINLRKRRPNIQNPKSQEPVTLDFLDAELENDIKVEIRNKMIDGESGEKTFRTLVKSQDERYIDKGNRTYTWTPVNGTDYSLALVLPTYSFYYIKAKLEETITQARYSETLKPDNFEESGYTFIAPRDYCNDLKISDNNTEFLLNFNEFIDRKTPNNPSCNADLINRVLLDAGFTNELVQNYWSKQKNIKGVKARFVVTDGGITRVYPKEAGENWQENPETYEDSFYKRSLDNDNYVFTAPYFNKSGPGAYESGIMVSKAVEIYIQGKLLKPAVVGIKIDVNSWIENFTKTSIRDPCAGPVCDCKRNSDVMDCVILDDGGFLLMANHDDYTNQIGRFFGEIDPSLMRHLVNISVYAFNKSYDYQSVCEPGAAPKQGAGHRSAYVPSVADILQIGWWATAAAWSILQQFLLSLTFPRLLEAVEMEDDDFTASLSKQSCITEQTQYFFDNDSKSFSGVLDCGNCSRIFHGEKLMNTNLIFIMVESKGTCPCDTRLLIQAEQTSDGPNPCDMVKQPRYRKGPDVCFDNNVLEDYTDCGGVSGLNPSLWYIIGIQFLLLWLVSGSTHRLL

Row | Ki [1] [µM] | Ki [2] [nM] | SMILES
1 | 0.5 to 5 | 100 to 500 | Cc1nnc(N(C)C)c2nn(-c3cccc(O[C@H](c4ccccc4)[C@@H]4CNCCO4)c3)c(C)c12 (racemic) [Example 12, N,N,3,4-tetramethyl-2-(3-((R)-((S)-morpholin-2-yl)(phenyl)methoxy)phenyl)-2H-pyrazolo[3,4-d]pyridazin-7-amine]
2 | 0.5 to 5 | 500 to 1000 | Cc1nnc(N(C)C)c2nn(-c3cccc(O[C@@H](c4ccccc4)[C@@H]4CNCCO4)c3)c(C)c12 (racemic) [Example 13, N,N,3,4-tetramethyl-2-(3-((S)-((S)-morpholin-2-yl)(phenyl)methoxy)phenyl)-2H-pyrazolo[3,4-d]pyridazin-7-amine]
3 | 0.5 to 5 | < 100 | CNCCC(Oc1cccc(-n2nc3c(N(C)C)nnc(C)c3c2C)c1)c1ccccc1 (stereo not shown) [Example 1, N,N,3,4-Tetramethyl-2-(3-(3-(methylamino)-1-phenylpropoxy)phenyl)-2H-pyrazolo[3,4-d]pyridazin-7-amine]
4 | 0.5 to 5 | 100 to 500 | Cc1nnc(N(C)C)c2nn(-c3cccc(OC(CCN(C)C)c4ccccc4)c3)c(C)c12 (stereo not shown) [Example 2, 2-(3-(3-(dimethylamino)-1-phenylpropoxy)phenyl)-N,N,3,4-tetramethyl-2H-pyrazolo[3,4-d]pyridazin-7-amine]
5 | 0.5 to 5 | 100 to 500 | CCNCCC(Oc1cccc(-n2nc3c(N(C)C)nnc(C)c3c2C)c1)c1ccccc1 (stereo not shown) [Example 3, 2-(3-(3-(ethylamino)-1-phenylpropoxy)phenyl)-N,N,3,4-tetramethyl-2H-pyrazolo[3,4-d]pyridazin-7-amine]
6 | 0.5 to 5 | 100 to 500 | Cc1nnc(N(C)C)c2nn(-c3cccc(OC(CCN)c4ccccc4)c3)c(C)c12 (stereo not shown) [Example 4, 2-(3-(3-amino-1-phenylpropoxy)phenyl)-N,N,3,4-tetramethyl-2H-pyrazolo[3,4-d]pyridazin-7-amine]
7 | 0.5 to 5 | < 100 | CNCCC(Oc1cccc(-n2nc3c(N(C)C)nnc(C)c3c2C)c1)c1cccc(F)c1 (stereo not shown) [Example 5, 2-(3-(1-(3-fluorophenyl)-3-(methylamino)propoxy)phenyl)-N,N,3,4-tetramethyl-2H-pyrazolo[3,4-d]pyridazin-7-amine]
8 | 0.5 to 5 | 100 to 500 | CNCCC(Oc1cccc(-n2nc3c(N(C)C)nnc(C)c3c2C)c1)c1ccc(C#N)cc1 (stereo not shown) [Example 7, 4-(1-(3-(7-(dimethylamino)-3,4-dimethyl-2H-pyrazolo[3,4-d]pyridazin-2-yl)phenoxy)-3-(methylamino)propyl)benzonitrile]
9 | 0.5 to 5 | < 100 | CNCCC(Oc1cccc(-n2nc3c(N(C)C)nnc(C)c3c2C)c1)c1ccc(F)cc1 (stereo not shown) [Example 8, 2-(3-(1-(4-fluorophenyl)-3-(methylamino)propoxy)phenyl)-N,N,3,4-tetramethyl-2H-pyrazolo[3,4-d]pyridazin-7-amine]
10 | 0.5 to 5 | 100 to 500 | CNCCC(Oc1cccc(-n2nc3c(N(C)C)nnc(C)c3c2C)c1)c1ccccn1 (stereo not shown) [Example 9, N,N,3,4-tetramethyl-2-(3-(3-(methylamino)-1-(pyridin-2-yl)propoxy)phenyl)-2H-pyrazolo[3,4-d]pyridazin-7-amine]
11 | 0.5 to 5 | < 100 | CNCCC(Oc1cccc(-n2nc3c(N(C)C)nnc(C)c3c2C)c1)c1ccncc1 (stereo not shown) [Example 10, N,N,3,4-tetramethyl-2-(3-(3-(methylamino)-1-(pyridin-4-yl)propoxy)phenyl)-2H-pyrazolo[3,4-d]pyridazin-7-amine]
12 | 0.5 to 5 | < 100 | CNCCC(Oc1cccc(-n2nc3c(N(C)C)nnc(C)c3c2C)c1)c1cccc(C#N)c1 (stereo not shown) [Example 11, 3-(1-(3-(7-(dimethylamino)-3,4-dimethyl-2H-pyrazolo[3,4-d]pyridazin-2-yl)phenoxy)-3-(methylamino)propyl)benzonitrile]
13 | 0.5 to 5 | 100 to 500 | Cc1nnc(N(C)C)c2nn(-c3cccc(OCCC(N)c4ccccc4)c3)c(C)c12 (stereo not shown) [Example 14, 2-(3-(3-amino-3-phenylpropoxy)phenyl)-N,N,3,4-tetramethyl-2H-pyrazolo[3,4-d]pyridazin-7-amine]
14 | 0.5 to 5 | < 100 | CNC(COc1cccc(-n2nc3c(N(C)C)nnc(C)c3c2C)c1)c1ccccc1 (stereo not shown) [Example 15, N,N,3,4-tetramethyl-2-(3-(2-(methylamino)-2-phenylethoxy)phenyl)-2H-pyrazolo[3,4-d]pyridazin-7-amine]
15 | 0.5 to 5 | ≥ 1000 | Cc1nnc(N(C)C)c2nn(-c3cccc(OC4CNCc5ccccc54)c3)c(C)c12 (stereo not shown) [Example 16, N,N,3,4-tetramethyl-2-(3-((1,2,3,4-tetrahydroisoquinolin-4-yl)oxy)phenyl)-2H-pyrazolo[3,4-d]pyridazin-7-amine]
16 | 0.5 to 5 | ≥ 1000 | CCNCCC(Oc1cccc(-n2nc3c(N(C)C)nnc(C)c3c2C)c1)c1cccc(F)c1 (stereo not shown) [Example 17, 2-(3-(3-(ethylamino)-1-(3-fluorophenyl)propoxy)phenyl)-N,N,3,4-tetramethyl-2H-pyrazolo[3,4-d]pyridazin-7-amine]
17 | 0.5 to 5 | 100 to 500 | CNCCC(Oc1cccc(-n2nc3c(N(C)C)nnc(C)c3c2C)c1)c1cc(F)cc(F)c1 (stereo not shown) [Example 18, 2-(3-(1-(3,5-difluorophenyl)-3-(methylamino)propoxy)phenyl)-N,N,3,4-tetramethyl-2H-pyrazolo[3,4-d]pyridazin-7-amine]
18 | 0.5 to 5 | 100 to 500 | Cc1nnc(N(C)C)c2nn(-c3cccc(OC(CCN)c4ccccc4F)c3)c(C)c12 (stereo not shown) [Example 19, 2-(3-(3-amino-1-(2-fluorophenyl)propoxy)phenyl)-N,N,3,4-tetramethyl-2H-pyrazolo[3,4-d]pyridazin-7-amine]
19 | 0.5 to 5 | 100 to 500 | Cc1nnc(N(C)C)c2nn(-c3cccc(OC(CCN)c4ccc(F)cc4)c3)c(C)c12 (stereo not shown) [Example 20, 2-(3-(3-amino-1-(4-fluorophenyl)propoxy)phenyl)-N,N,3,4-tetramethyl-2H-pyrazolo[3,4-d]pyridazin-7-amine]
20 | 0.5 to 5 | 100 to 500 | Cc1nnc(N(C)C)c2nn(-c3cccc(OC(CCN)c4cccc(F)c4)c3)c(C)c12 (stereo not shown) [Example 21, 2-(3-(3-amino-1-(3-fluorophenyl)propoxy)phenyl)-N,N,3,4-tetramethyl-2H-pyrazolo[3,4-d]pyridazin-7-amine]
21 | 0.5 to 5 | < 100 | CNCCC(Oc1cccc(-n2nc3c(NC)nnc(C)c3c2C)c1)c1ccccc1F (stereo not shown) [Example 22, 2-(3-(1-(2-fluorophenyl)-3-(methylamino)propoxy)phenyl)-N,3,4-trimethyl-2H-pyrazolo[3,4-d]pyridazin-7-amine]
22 | 0.5 to 5 | 100 to 500 | CNc1nnc(C)c2c(C)n(-c3cccc(OC(CCN)c4ccccc4F)c3)nc12 (stereo not shown) [Example 23, 2-(3-(3-amino-1-(2-fluorophenyl)propoxy)phenyl)-N,3,4-trimethyl-2H-pyrazolo[3,4-d]pyridazin-7-amine]
23 | 0.5 to 5 | 500 to 1000 | CNc1nnc(C)c2c(C)n(-c3cccc(OC(CCN)c4ccccc4)c3)nc12 (stereo not shown) [Example 24, 2-(3-(3-amino-1-phenylpropoxy)phenyl)-N,3,4-trimethyl-2H-pyrazolo[3,4-d]pyridazin-7-amine]
24 | 0.5 to 5 | 100 to 500 | CNCCC(Oc1cccc(-n2nc3c(NC)nnc(C)c3c2C)c1)c1ccccc1 (stereo not shown) [Example 25, N,3,4-trimethyl-2-(3-(3-(methylamino)-1-phenylpropoxy)phenyl)-2H-pyrazolo[3,4-d]pyridazin-7-amine]
25 | 0.5 to 5 | 100 to 500 | CNCCC(Oc1cccc(-n2nc3c(N)nnc(C)c3c2C)c1)c1ccccc1F (stereo not shown) [Example 26, 2-(3-(1-(2-fluorophenyl)-3-(methylamino)propoxy)phenyl)-3,4-dimethyl-2H-pyrazolo[3,4-d]pyridazin-7-amine]
26 | 0.5 to 5 | < 100 | CNCCC(Oc1cccc(-n2nc3c(N)nnc(C)c3c2C)c1)c1ccccc1 (stereo not shown) [Example 27, 3,4-dimethyl-2-(3-(3-(methylamino)-1-phenylpropoxy)phenyl)-2H-pyrazolo[3,4-d]pyridazin-7-amine]
27 | 0.5 to 5 | 500 to 1000 | Cc1nnc(N)c2nn(-c3cccc(OC(CCN)c4ccccc4F)c3)c(C)c12 (stereo not shown) [Example 28, 2-(3-(3-amino-1-(2-fluorophenyl)propoxy)phenyl)-3,4-dimethyl-2H-pyrazolo[3,4-d]pyridazin-7-amine]
28 | ≥ 5 | ≥ 1000 | Cc1nnc(N(C)C)c2nn(-c3cccc(OCC4CCNCC4)c3)c(C)c12 [Example 29, N,N,3,4-tetramethyl-2-(3-(piperidin-4-ylmethoxy)phenyl)-2H-pyrazolo[3,4-d]pyridazin-7-amine]

Row | SMILES | Ki [1] [µM] | Ki [2] [nM]
29 | CNCCCC(Oc1cccc(-n2nc3c(N(C)C)nnc(C)c3c2C)c1)c1ccccc1 (stereo not shown) [Example 6, N,N,3,4-tetramethyl-2-(3-(4-(methylamino)-1-phenylbutoxy)phenyl)-2H-pyrazolo[3,4-d]pyridazin-7-amine] | 0.5 to 5 | 100 to 500

— US20200190081A1, “META SUBSTITUTED PHENYLPYRAZOLO- AND PHENYLPYRROLO- PYRIDAZINE DERIVATIVES HAVING MULTIMODAL ACTIVITY AGAINST PAIN” (ESTEVE PHARMACEUTICALS, S.A., priority 2016, published 2020)
